Here are results for 13 molecules from PubChem BioAssay (NCI).

Some test systems named below: MDA-N; HS 578T breast; PC-3 prostate; ACHN renal; NCI/ADR-RES ovarian; DU-145 prostate; TK-10 renal; MCF7 breast; M14 melanoma; NCI-H226 lung; SN12C renal; SNB-78 CNS; NCI-H522 lung; DMS 273 small cell lung; M19-MEL melanoma.
Common to all, as to test: NCI anticancer screen, dose series, 48 h

SMILES strings stand for the structures. Several values for one entry are separate records, joined by “and”; a condition that tells them apart may be missing. Equal values may be shown once.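 Five compound concentrations were applied to cells in 96-well plates for 48 hours; endpoints were derived by simple linear interpolation of the resulting dose-response curve. Here, GI50 denotes the concentration required for 50% inhibition of growth. The concentration for full growth arrest is given as TGI.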 Where a SMILES comes first, the peptide text is derived from it.

For the molecule `CC1=CC(C2/C(=N/O)C=C(C)CC2(C)C)C(O)C(C)(C)C1` (configuration not stated), the TGI was 31.9 µM in the test with MDA-N; over 100 µM in the test with HS 578T breast; 29.8 µM in the test with PC-3 prostate; 34 µM with ACHN renal; 33.5 µM with NCI/ADR-RES ovarian; 29.1 µM in the test with DU-145 prostate. The TGI with TK-10 renal came to 35.2 µM; in the test on MCF7 breast, 30.4 µM; with M14 melanoma, 28.9 µM; in the test with NCI-H226 lung, 33.7 µM; in the test with SN12C renal it was 33.3 µM.
For the molecule `CCOC(=O)c1csc(NC(=O)C(C)N2CCCCC2)n1` (configuration not stated), the TGI with MDA-N, with PC-3 prostate, in the test on ACHN renal, in the test with NCI/ADR-RES ovarian, in the test with DU-145 prostate and with TK-10 renal was over 100 µM in each case. The TGI in the test on MCF7 breast and in the test with M14 melanoma was over 100 µM in each case.
For `OCC1OC(n2cnc3c2NC=NC[C@H]3O)C(O)C1O` (some centres not stated), the TGI with SNB-78 CNS is over 450 µM; in the test on NCI-H522 lung it was over 450 µM; with NCI/ADR-RES ovarian, over 450 µM; with MCF7 breast, over 450 µM; in the test with DMS 273 small cell lung, over 450 µM; in the test with NCI-H226 lung, over 273 µM. The TGI in the test with M19-MEL melanoma and in the test on SN12C renal was over 450 µM each time.
With `COC(=O)C1OC(Oc2cc(O)c3c(=O)cc(-c4ccc(O)cc4)oc3c2)C(O)C(O)C1O` (configuration not stated), the TGI in the test with SNB-78 CNS, in the test on NCI-H522 lung, with NCI/ADR-RES ovarian, in the test on MCF7 breast, with DMS 273 small cell lung and in the test on NCI-H226 lung was over 100 µM throughout. Further, the TGI in the test on M19-MEL melanoma and in the test on SN12C renal was over 100 µM in each case.
In the case of `CN(C)C(=O)NCCN1CCCCCc2ccccc21`, the TGI in the test with MDA-N, in the test with HS 578T breast, in the test with PC-3 prostate, in the test with ACHN renal, with NCI-H522 lung and with NCI/ADR-RES ovarian was over 100 µM in each case. Further, the TGI in the test on DU-145 prostate, in the test on TK-10 renal, in the test on MCF7 breast, with M14 melanoma, in the test with NCI-H226 lung and in the test with SN12C renal was over 100 µM throughout.
Turning to `COc1ccnc2c1C(=O)c1nc3ccccc3c3ccnc-2c13`, the TGI in the test on MDA-N came to 0.904 µM; with HS 578T breast, 6.44 µM; with PC-3 prostate, 1.81 µM; in the test on ACHN renal, 0.41 µM; in the test with NCI-H522 lung, 0.262 µM; with NCI/ADR-RES ovarian, 0.147 µM. In addition, the TGI was found to be 0.31 µM in the test on DU-145 prostate; 1.13 µM in the test on TK-10 renal; 0.298 µM in the test with MCF7 breast; 0.272 µM in the test with M14 melanoma; 0.535 µM in the test on SN12C renal.
On to `O=C1NC(=O)C(CCO)(c2ccccc2)C(=O)N1`, for which the TGI in the test with SNB-78 CNS, in the test on NCI-H522 lung, in the test with NCI/ADR-RES ovarian, in the test with MCF7 breast, in the test on DMS 273 small cell lung and in the test on NCI-H226 lung was over 100 µM throughout. Further, the TGI in the test on M19-MEL melanoma and in the test on SN12C renal was over 100 µM each time.
Consider `O=C(CC(c1ccccc1)N1CCCCC1)c1ccccc1` (configuration not stated), for which the TGI came out at 27.3 µM in the test on MDA-N; 70.5 µM in the test with HS 578T breast; 29.4 µM in the test with PC-3 prostate; 30.7 µM with ACHN renal; 28.6 µM with NCI-H522 lung; 60.8 µM in the test on NCI/ADR-RES ovarian. The TGI in the test with DU-145 prostate stood at 32.3 µM; in the test with TK-10 renal, 27.3 µM; in the test on MCF7 breast it was 15.4 µM; with M14 melanoma, 42.3 µM; in the test on NCI-H226 lung it was 37.4 µM; with SN12C renal, 32.6 µM.
For the molecule `C=CCn1c(=O)n(CC=C)c(=O)n(CC=C)c1=O`, the TGI in the test on ACHN renal, with SNB-78 CNS, with NCI-H522 lung, in the test on TK-10 renal, with M14 melanoma and in the test with DMS 273 small cell lung was over 100 µM throughout. The TGI in the test with M19-MEL melanoma and in the test on SN12C renal was over 100 µM in each case.
Consider `O=c1c(-c2ccccc2)c(SCCCN2CCN(c3cccc(Cl)c3)CC2)n(-c2ccccc2)c(=S)n1-c1ccccc1`, for which the TGI with HS 578T breast, with PC-3 prostate, in the test with ACHN renal, in the test on NCI-H522 lung, in the test on NCI/ADR-RES ovarian and in the test on DU-145 prostate was over 100 µM throughout. Moreover, the TGI with TK-10 renal, with MCF7 breast and in the test with NCI-H226 lung was over 100 µM in each case.
As for `C=C1C(=O)O[C@H]2[C@H]1[C@@H](OC(=O)C=C(C)C)CC1=C[C@@H](C[C@@]3(C)O[C@@H]23)OC1=O`, the GI50 with SNB-78 CNS is 2.35 µM and 10.6 µM; with NCI/ADR-RES ovarian it was 3.89 µM; with MCF7 breast, 0.603 µM and 2.59 µM; in the test with DMS 273 small cell lung it was 24.7 µM; in the test on M19-MEL melanoma, 4.37 µM. In addition, the TGI with SNB-78 CNS was 15.1 µM and 40.2 µM; in the test on NCI-H522 lung it was 3.08 µM; in the test with NCI/ADR-RES ovarian, 6.18 µM and 13.4 µM; with MCF7 breast it was 4.39 µM and 6.93 µM; with NCI-H226 lung it was 36.2 µM; in the test with M19-MEL melanoma, 8.29 µM and 16.7 µM. This molecule yielded a TGI in the test on SN12C renal of 12.7 µM.
With `CCC(C)C(NC(=O)C(CCCCN)NC(=O)C(NC(=O)C(CCC(N)=O)NC(=O)C(N)CCCNC(=N)N)C(C)CC)C(=O)NC(Cc1c[nH]c2ccccc12)C(=O)NC(Cc1ccccc1)C(=O)NC(CCC(N)=O)C(=O)NC(CC(N)=O)C(=O)NC(CCCNC(=N)N)C(=O)NC(CCCNC(=N)N)C(=O)NC(CCSC)C(=O)NC(CCCCN)C(=O)NC(Cc1c[nH]c2ccccc12)C(=O)NC(CCCCN)C(=O)NC(CCCCN)C(=O)N1CCCC1C(=O)NC(C)C(=O)NC(CCCCN)C(=O)NC(CCCNC(=N)N)C(=O)NC(CCCCN)C(=O)NC(CC(C)C)C(=O)NC(Cc1ccccc1)C(=O)NCC(=O)O` (configuration not stated) (H-RQIKIWFQNRRMKWKKPAKRKLFG-OH; configuration not given here), the TGI in the test on MDA-N, in the test on HS 578T breast, with PC-3 prostate, in the test with ACHN renal, in the test with NCI-H522 lung and in the test with NCI/ADR-RES ovarian was over 25 µM throughout. For the same molecule, the TGI in the test with DU-145 prostate, with TK-10 renal, with MCF7 breast, in the test with M14 melanoma, with NCI-H226 lung and with SN12C renal was over 25 µM in each case.
On to `CCCCN1C=CN2c3nc4cc(C)c(C)cc4n3C(C(=O)OC)=C(C(=O)OC)C12` (configuration not stated), for which the TGI in the test on ACHN renal, in the test with SNB-78 CNS, in the test with NCI-H522 lung, with TK-10 renal, with M14 melanoma and with DMS 273 small cell lung was over 100 µM throughout. The TGI with M19-MEL melanoma and with SN12C renal was over 100 µM in each case.
